{
  "source": "patent US9750672B1",
  "about": "“Aloe derived mineral supplement” (AL Global Inc., priority 2013, dated 2017)",
  "origin": "cited, not measured here",
  "key": {"[1]": {"details": "magnesium load 25 mmol; for increment in urinary magnesium during 4 hours post-load: p<0.05; for increment in urinary magnesium during second 2 hours post-load: p less than 0.05"}},
  "data": [
    {"compound": "[O]=[Mg]", "note": "[Magnesium oxide]", "values": [
      {"measurement": "solubility in simulated peak acid secretion", "setting": "24.2 mEq hydrochloric acid/300 ml", "value": 43, "unit": "%"},
      {"measurement": "solubility in water", "setting": "water", "value": "virtually insoluble"},
      {"measurement": "increment in urinary magnesium during 4 hours post-load", "setting": "[1]", "value": 0.006, "unit": "mg/mg creatinine"},
      {"measurement": "increment in urinary magnesium during second 2 hours post-load", "setting": "[1]", "value": 0.008, "unit": "mg/mg creatinine"}
    ]},
    {"compound": "Magnesium citrate", "values": [
      {"measurement": "increment in urinary magnesium during 4 hours post-load", "setting": "[1]", "value": 0.22, "unit": "mg/mg creatinine"},
      {"measurement": "increment in urinary magnesium during second 2 hours post-load", "setting": "[1]", "value": 0.035, "unit": "mg/mg creatinine"}
    ]}
  ]
}
